Measurements reported in ChEMBL document CHEMBL4482324, “Ash1l inhibitors and methods of treatment therewith” (2017).

What follows are compounds tested against Histone-lysine N-methyltransferase ASH1L (Homo sapiens, UniProt Q9NR48) (assay: Inhibition of MOCR-fused ASH1L SET-BAH ( 2069 to 2833 amino acids) (unknown origin) expressed as in Escherichia coli BL21 (DE3) T1R cells using SAM and chicken mono/dinucleosomes incubated for 1 hr by scintillation counting assay).

IC50	Compound
< 20 µM	CS(=O)(=O)N1CCC(n2cc(-c3cccc(C(N)=S)c3)c3ccc(CNC(=O)Cc4cc(NCC5CCCCC5)c[nH]4)cc32)CC1
> 100 µM	Cc1c[nH]c2cccc(-c3cccc(C(N)=S)c3)c12
> 100 µM	NC(=S)c1cccc(-c2c[nH]c3cccnc23)c1
20 to 100 µM	COCc1cc2c(-c3cccc(C(N)=S)c3)cccc2n1C
< 20 µM	NC(=S)c1cccc(-c2cn(CCCC(F)(F)F)c3cc(CNC(=O)c4ccccc4)ccc23)c1
20 to 100 µM	NC(=S)c1cccc(-c2cc(C(F)(F)F)cc3c2ccn3CC(F)(F)F)c1
20 to 100 µM	NC(=S)c1cccc(-c2cn(CCO)c3cc([N+](=O)[O-])ccc23)c1
< 20 µM	NC(=S)c1cccc(-c2cn(CC3(C(F)(F)F)CC3)c3cc(N)ccc23)c1
< 20 µM	NC(=S)c1cccc(-c2cn(CC(O)C(F)(F)F)c3cc(CO)ccc23)c1 (centres undefined)
> 100 µM	CN(C)CCNc1ccc2c(-c3cccc(C(N)=S)c3)cn(CCCC(F)(F)F)c2c1
< 20 µM	NC(=S)c1cccc(-c2cn(C3CCN(C(=O)CCCCc4cccc5c4C(=O)N(C4CCC(=O)NC4=O)C5=O)CC3)c3cc(CNc4nnc(N)s4)ccc23)c1 (centres undefined)
> 100 µM	NC(=S)c1cc(-c2ccccc2)cs1
> 100 µM	NC(=S)c1cccc(-n2cccc2)c1
< 20 µM	NC(=S)c1cccc(-c2cn(CC3CCC3)c3cc(CO)ccc23)c1
< 20 µM	NC(=S)c1cccc(-c2cc(CCC(F)F)c3cc[nH]c3c2)c1
< 20 µM	NC(=S)c1cccc(-c2cn(C3CCOCC3)c3cc(-c4ccn[nH]4)ccc23)c1
> 100 µM	CNc1ccc(-c2cccc3[nH]ccc23)cc1C(N)=S
> 100 µM	NC(=S)c1cccc(-c2ccc(OCCOCCNC(=O)CCCCCNC(=O)c3ccc4c(c3)C(=O)OC43c4ccc(O)cc4Oc4cc(O)ccc43)c3[nH]ccc23)c1
< 20 µM	NC(=S)c1cccc(-c2cn(C3CCCCC3)c3cc(CO)ccc23)c1
< 20 µM	NC(=S)c1cccc(-c2cn(CC3CC(F)C(F)C3)c3cc(CO)ccc23)c1 (centres undefined)
> 100 µM	COc1ccc(-c2cccc(C(N)=S)c2)cc1
< 20 µM	NC(=S)c1cccc(-c2cn(CC3CC(O)C(O)C3)c3cc(CO)ccc23)c1 (centres undefined)

IC50	Compound
< 20 µM	NC(=S)c1cccc(-c2cn(CCCC(F)(F)F)c3cc(CNS(=O)(=O)c4c[nH]cn4)ccc23)c1
< 20 µM	NC(=S)c1cccc(-c2cn(CC3C(F)(F)C3(F)F)c3cc(CO)ccc23)c1
< 20 µM	NC(=S)c1cccc(-c2cn(CC3CC3)c3cc(CO)ccc23)c1
> 100 µM	COc1ccccc1-c1cccc(C(N)=S)c1
< 20 µM	NC(=S)c1cccc(-c2cn(CC(O)(CC(F)(F)F)CC(F)(F)F)c3cc(N)ccc23)c1
< 20 µM	NC(=S)c1cc(-c2cn(CCC(F)F)c3cc(CO)ccc23)ccn1
> 100 µM	NC(=S)c1cc(-c2c[nH]c3ccccc23)ccc1N
> 100 µM	NC(=S)c1cccc(-c2cccc3c2ccn3CCO)c1
< 20 µM	NC(=S)c1cccc(-c2ccc(CCC(F)F)c3[nH]cnc23)c1
< 20 µM	NC(=S)c1cccc(-c2ccc(CCC(F)F)c3[nH]ccc23)c1
< 20 µM	NC(=S)c1cccc(-c2cn(CCCC(F)(F)F)c3cc(NCC(F)(F)F)ccc23)c1
> 100 µM	NC(=S)c1cccs1
> 100 µM	CCn1ccc2c(-c3cccc(C(N)=S)c3)cccc21
> 100 µM	NC(=S)c1cccc(-c2cccc3[nH]c(CNCc4ccccc4)cc23)c1
> 100 µM	NC(=S)c1cccc(-c2cccnc2)c1
> 100 µM	NC(=S)c1cccc(-c2ccccc2O)c1
< 20 µM	Cc1nc(CS(=O)(=O)NCc2ccc3c(-c4cccc(C(N)=S)c4)cn(C4CCN(S(C)(=O)=O)CC4)c3c2)cs1
20 to 100 µM	Cc1cc2c(-c3cccc(C(N)=S)c3)ccc(O)c2[nH]1
> 100 µM	NC(=S)c1ccnc(-n2cccc2)c1
< 20 µM	NC(=S)c1cccc(-c2cc(CC(CF)CF)c3[nH]ccc3c2)c1
> 100 µM	NC(=S)c1cc(-c2ccc(O)cc2)ccc1F
> 100 µM	NC(=S)c1cc(F)cc(-c2ccc(O)cc2)c1

IC50	Compound
< 20 µM	NC(=S)c1cccc(-c2cn(CC3CCCC3)c3cc(N)ccc23)c1
< 20 µM	NC(=S)c1cccc(-c2cn(CCCC(F)(F)F)c3cc(CNC(=O)Cc4csc(N)n4)ccc23)c1
> 100 µM	COc1cc(C(N)=S)cc(-c2cccc3[nH]ccc23)c1
< 20 µM	NC(=S)c1cccc(-c2cn(CCC(F)F)c3cc(CO)c(F)cc23)c1
< 20 µM	CCCc1c[nH]c(CC(=O)NCc2ccc3c(-c4cccc(C(N)=S)c4)cn(C4CCN(S(C)(=O)=O)CC4)c3c2)c1
< 20 µM	NC(=S)c1cc(-c2cn(CCC(F)F)c3cc(CO)ccc23)c[nH]1
< 20 µM	NC(=S)c1cccc(-c2cn(CCC(F)F)c3cc(CNC(=O)C(F)(F)F)ccc23)c1
20 to 100 µM	NC(=S)c1cccc(-c2cccc3c2ccn3CO)c1
> 100 µM	NC(=S)c1cccc(-c2ccccc2)c1
> 100 µM	NC(=S)c1cccc(-c2cccc3[nH]ccc23)n1
< 20 µM	NC(=S)c1cccc(-c2cn(CC(CF)CF)c3cc(CF)ccc23)c1
> 100 µM	NC(=S)c1cncc(-c2cccc3[nH]ccc23)c1
< 20 µM	CC(O)c1ccc2c(-c3cccc(C(N)=S)c3)cn(CCC(F)F)c2c1 (centres undefined)
< 20 µM	NC(=S)c1cccc(-c2c[nH]c3cc4cc[nH]c4cc23)c1
< 20 µM	NC(=S)c1cccc(-c2cn(CCC(F)F)c3cc(CO)ccc23)c1
< 20 µM	CS(=O)(=O)N1CCC(n2cc(-c3cccc(C(N)=S)c3)c3ccc(CNC(=O)CC4CCNC4)cc32)CC1 (centres undefined)
> 100 µM	NC(=O)c1cc2c(-c3cccc(C(N)=S)c3)cccc2[nH]1
< 20 µM	CS(=O)(=O)N1CCC(n2cc(-c3cccc(C(N)=S)c3)c3ccc(CNC(=O)Cc4cc5ccccc5[nH]4)cc32)CC1
> 100 µM	CC(N)c1cccc(-c2cccc3[nH]ccc23)c1 (centres undefined)
< 20 µM	CCCOc1nnc(NCc2ccc3c(-c4cccc(C(N)=S)c4)cn(C4CCN(S(C)(=O)=O)CC4)c3c2)s1
> 100 µM	NC(=S)c1ccc(-c2ccc(O)cc2)s1
> 100 µM	NC(=S)c1ccc(-c2ccccc2)s1

IC50	Compound
20 to 100 µM	NC(=S)c1cccc(-c2cn(CC3OCCO3)c3cc(N)ccc23)c1
> 100 µM	Cc1cc(-c2cccc(C(N)=S)c2)c(C)cc1O
< 20 µM	NC(=S)c1cccc(-c2cn(CCCC(F)(F)F)c3cc(CNC(=O)c4cscn4)ccc23)c1
> 100 µM	NC(=S)c1cccc(-c2cccc(OCc3ccccc3)c2)c1
< 20 µM	NC(=S)c1cccc(-c2cn(CC3CC3(F)F)c3cc(N)ccc23)c1 (centres undefined)
> 100 µM	NC(=S)c1cncc(-c2ccc(O)cc2)c1
< 20 µM	NC(=S)c1cc(-c2cn(CCC(F)F)c3cc(CO)ccc23)ccc1F
< 20 µM	NC(=S)c1cccc(-c2cn(CC(CF)CF)c3cc(C(O)CO)ccc23)c1 (centres undefined)
< 20 µM	CS(=O)(=O)N1CCC(n2cc(-c3cccc(C(N)=S)c3)c3ccc(CNC(=O)Cc4ccc[nH]4)cc32)CC1
20 to 100 µM	NC(=S)c1cccc(-c2c[nH]c3c(CO)cccc23)c1
< 20 µM	NC(=S)c1ccnc(-c2cn(CC(CF)CF)c3cc(CO)ccc23)c1
20 to 100 µM	NC(=S)c1cccc(-c2cn(CCO)c3cc(N)ccc23)c1
< 20 µM	NC(=S)c1cccc(-c2cn(C3CCOCC3)c3cc(N)ccc23)c1
< 20 µM	NC(=S)c1cc(-c2cn(CC(CF)CF)c3cc(CO)ccc23)ccn1
< 20 µM	NC(=S)c1cccc(-c2cn(CCCC(F)(F)F)c3cc(CO)ccc23)c1
< 20 µM	NC(=S)c1cccc(-c2cn(CC(CF)C(F)F)c3cc(N)ccc23)c1 (centres undefined)
< 20 µM	NC(=S)c1cccc(-c2cn(CCCC(F)(F)F)c3cc(CNCc4cn[nH]n4)ccc23)c1
< 20 µM	NC(=S)c1cc(-c2cn(CCC(F)F)c3cc(CO)ccc23)c2ocnc2c1
> 100 µM	NC(=S)c1cccc(-c2ccc(O)c3c2CCC3)c1
20 to 100 µM	NC(=S)c1cccc(-c2cc(C(F)(F)F)cc3[nH]ccc23)c1
20 to 100 µM	NC(=S)c1cccc(-c2cn(CCCC(F)(F)F)c3ccc(N)cc23)c1
< 20 µM	NC(=S)c1cccc(-c2cc(CCC(F)F)c3[nH]ccc3c2)c1

IC50	Compound
> 100 µM	CSCCn1cc(-c2cccc(C(N)=S)c2)c2ccccc21
< 20 µM	NC(=O)c1cc(-c2cn(CCC(F)F)c3cc(CO)ccc23)ccc1O
20 to 100 µM	NC(=S)c1cccc(-c2cn(CCCC(F)(F)F)c3cc(CN4CCOCC4)ccc23)c1
> 100 µM	NC(=O)c1ccc2c(-c3cccc(C(N)=S)c3)c[nH]c2c1
< 20 µM	NC(=O)c1cccc(-c2cn(CCC(F)F)c3cc(CO)ccc23)c1
> 100 µM	NC(=S)c1cccc(-c2ccc(S(N)(=O)=O)cc2)c1
< 20 µM	NC(=S)c1ccnc(-c2cn(CCC(F)F)c3cc(CO)ccc23)c1
< 20 µM	NC(=S)c1cccc(-c2cn(CC(C(F)F)C(F)F)c3cc(CO)ccc23)c1
< 20 µM	NC(=S)c1cccc(-n2cc(C3CCCCC3O)c3cc(CO)ccc32)c1 (centres undefined)
> 100 µM	NC(=S)c1ccc(F)c(-c2ccc(O)cc2)c1
< 20 µM	NC(=S)c1cccc(-c2cn(C3CCOCC3)c3cc(SCCO)ccc23)c1
> 100 µM	Cc1cc(O)cc(C)c1-c1cccc(C(N)=S)c1
> 100 µM	NC(=S)c1cccc(-c2ccc(O)cc2F)c1
< 20 µM	NC(=S)c1cccc(-c2cn(CC3(F)CCC3)c3cc(CO)ccc23)c1
< 20 µM	NC(=S)c1cccc(-c2cn(CC(CO)(C(F)F)C(F)F)c3cc(C(O)CCF)ccc23)c1 (centres undefined)
< 20 µM	NC(=S)c1cccc(-c2cn(CC(C(F)F)C(F)F)c3cc(N)ccc23)c1
< 20 µM	CC(C)(C)OC(=O)Nc1nc(CC(=O)NCc2ccc3c(-c4cccc(C(N)=S)c4)cn(CCCC(F)(F)F)c3c2)cs1
> 100 µM	NC(=S)c1cccc(-c2c[nH]c3cccc(N)c23)c1

Compound	IC50
CCCS(=O)(=O)N1CCC(n2cc(-c3cccc(C(N)=S)c3)c3ccc(CNC(=O)CCCCc4cccc5c4C(=O)N(C4CCC(=O)NC4=O)C5=O)cc32)CC1 (centres undefined)	< 20 µM
CS(=O)(=O)N1C2CCC1CC(n1cc(-c3cccc(C(N)=S)c3)c3ccc(N)cc31)C2 (centres undefined)	< 20 µM
NC(=S)c1cccc(-c2cccc3[nH]c(CSP(=S)(c4ccccc4)c4ccccc4)cc23)c1	> 100 µM
